Drawing on paper PMC12040169 (PLOS Biology, 2025), this text covers viability for 76 molecules.

The nature of this series: in vitro. The following applies: human, hela cells, % viability.

By viability is commonly meant a read-out of living cells in per cent, often relative to untreated cells.

For the molecule `COc1ccc(S(=O)(=O)Nc2cccc(C(=O)O)c2)cc1C(=O)O` [CBK264069], the viability at 28.5 h, 10 µM was 86.8%. On to `COc1ccc(S(=O)(=O)NCc2ccc3c(c2)OCO3)cc1C(=O)O` [CBK264070], for which the viability at 28.5 h, 10 µM was 97.6%. In the case of `O=C(O)CCc1nc2ccccc2s1` [CBK264071], the viability at 28.5 h, 10 µM amounted to 115%. On to `COc1cc(NC(=O)c2ccc3c(c2)C(=O)N(c2c(C)cc(C)cc2C)C3=O)c(C(=O)O)cc1OC` [CBK264074], for which the viability at 28.5 h, 10 µM is 91.1%. Same read-out and setting: the result for `COc1ccc(NC2c3cccc4cccc(c34)C2NS(=O)(=O)c2ccccc2)cc1` (stereo not shown) [CBK264075] reads 97.4%; that for `COc1cc(/C=C/C(=O)O)cc(S(=O)(=O)N2CCOCC2)c1OC` [CBK264078], 117%.

As for `CC1=C(C(=O)OCC(=O)c2ccc(C)cc2)C2C=C(Br)C=CC2N=C1c1ccc(C)cc1` (stereo not shown) [CBK264079], the viability at 28.5 h, 10 µM was 94%. Same read-out and setting: then `O=C(O)CNC(=O)CN1C(=O)c2ccc(C(=O)O)cc2C1=O` [CBK264080], with 90.8%; and `Cc1ccc(C(=O)COC(=O)c2cccc(C)c2O)cc1[N+](=O)[O-]` [CBK264081], with 90.5%; and `COc1ccc(C(=O)C(OC(=O)c2cc(O)nc3ccccc23)c2ccccc2)cc1` (stereo not shown) [CBK264083], with 97.1%. With `COc1ccc(S(=O)(=O)Nc2ccccc2C(=O)O)cc1C(=O)O` [CBK264084], the viability at 28.5 h, 10 µM was determined as 99.9%. Still for that read-out and setting: then `Cc1cccc2c(C(=O)OCC(=O)c3ccc([N+](=O)[O-])cc3)cc(-c3ccc(Cl)cc3)nc12` [CBK264088], with 94.5%; and `COc1cccc(NC(=O)CN2CCN(c3nc4ccc([N+](=O)[O-])cc4s3)CC2)c1` [CBK264089], with 93.7%; and `N#Cc1cc(Nc2ccc(Cc3ccncc3)cc2)c([N+](=O)[O-])cc1C#N` [CBK264090], with 93.9%. Regarding `Cc1noc(NS(=O)(=O)c2ccc(NC(=O)CCN3C(=O)c4ccccc4C3=O)cc2)c1C` [CBK264091], the viability at 28.5 h, 10 µM was 96.1%. Same read-out and setting: then `CS(=O)(=O)N(Cc1ccc(Cl)cc1)c1ccc(C(=O)Nc2ccccc2C(=O)O)cc1` [CBK264093], with 105%; and `Cc1ccc(S(=O)(=O)N(CC(=O)Nc2cccnc2)c2cccc(Br)c2)cc1` [CBK264094], with 62.8%. Still for that read-out and setting: then `O=C(Nc1cccnc1)c1ccc(CN2CCC(Cc3ccccc3)CC2)cc1` [CBK264095], with 94.9%; and `Cc1ccc(C(=O)COC(=O)CCN2C(=O)C3C4CCC(C4)C3C2=O)cc1[N+](=O)[O-]` (stereo not shown) [CBK264096], with 91.5%. Consider `O=C(Nc1cc(-c2nc3ncccc3o2)ccc1Cl)c1ccc(-c2ccccc2[N+](=O)[O-])o1` [CBK264097], for which the viability at 28.5 h, 10 µM turned out to be 89%. `COc1ccc(NC(=O)C(OC)c2ccccc2)cc1Cl` (stereo not shown) [CBK264098]: the viability at 28.5 h, 10 µM turned out to be 95.2%.

`O=C(Cn1c(NCCCO)nc2ccccc21)c1ccco1` [CBK264099B]: the viability at 28.5 h, 10 µM was found to be 94.7%. With `CC(=O)Nc1ccc(S(=O)(=O)/N=C(/Nc2nc(C)cc(C)n2)Nc2ccccc2C)cc1` [CBK264101], the viability at 28.5 h, 10 µM amounted to 95.9%.

As for `COc1ccccc1NC(=O)c1c(NC(=O)Cc2ccccc2)sc2c1CCC(C(C)(C)C)C2` (stereo not shown) [CBK264102], the viability at 28.5 h, 10 µM came out at 94.1%. Same read-out and setting: then `Cc1ccc(C(=O)NCCNC(=O)CN2CCCC2)cc1` [CBK264103], with 92.5%; and `O=C(Nc1cc(-c2nc3ncccc3o2)ccc1Cl)c1ccc2c(c1)OCCO2` [CBK264105], with 95%; and `Cc1ccccc1N1C(=O)c2ccc(C(=O)OCC(=O)c3ccc(Cl)c([N+](=O)[O-])c3)cc2C1=O` [CBK264108], with 91.3%. As for `Cc1cccc(OCC(=O)Nc2ccc(S(=O)(=O)N3CCOCC3)cc2)c1` [CBK264110], the viability at 28.5 h, 10 µM is 94.6%. For `COc1ccc(Br)cc1C(=O)Nc1cc(-c2nc3ccccc3[nH]2)ccc1Cl` [CBK264112], the viability at 28.5 h, 10 µM was 93.6%.

Consider `Cc1ccc(NC(=O)CSc2nnc(COc3ccc(Cl)cc3Cl)o2)cc1Cl` [CBK264113], for which the viability at 28.5 h, 10 µM was found to be 90.9%. On the same count and under the same terms, the result for `O=C(CSCc1cccc(Cl)c1)Nc1cccnc1` [CBK264114] reads 95.9%.

Consider `Cc1ccc(S(=O)(=O)N(CC(=O)Nc2cccnc2)c2cc(C)ccc2C)cc1` [CBK264115], for which the viability at 28.5 h, 10 µM turned out to be 61.7%. The same measure, in the same setting: the result for `Cc1ccc(S(=O)(=O)NCCSCc2cccc(Cl)c2)cc1[N+](=O)[O-]` [CBK264116] reads 93.4%; that for `CS(=O)(=O)N(Cc1ccccc1)c1ccc(C(=O)Nc2ccccc2C(=O)O)cc1` [CBK264117], 108%; that for `c1csc(-c2nc3[nH]c4ccccc4n3n2)c1` [CBK264118], 102%. Consider `O=C(CCSc1ccccc1)Nc1ccccc1C(=O)O` [CBK264119], for which the viability at 28.5 h, 10 µM is 92.1%. On the same count and under the same terms, then `CN1CCN(C(=O)CN(c2cccc([N+](=O)[O-])c2)S(=O)(=O)c2ccccc2)CC1` [CBK264121], with 87.6%. Consider `COc1ccccc1NC(=O)c1c(NC(=O)c2cccs2)sc2c1CCC(C(C)(C)C)C2` (stereo not shown) [CBK264123], for which the viability at 28.5 h, 10 µM turned out to be 100%. For `O=C(CCN1C(=O)C2C3CCC(C3)C2C1=O)OCC(=O)c1ccc(Cl)c([N+](=O)[O-])c1` (stereo not shown) [CBK264124], the viability at 28.5 h, 10 µM amounted to 95.2%.

`O=C(Cn1c(NCCO)nc2ccccc21)c1ccco1` [CBK264127B]: the viability at 28.5 h, 10 µM stood at 96.3%. Same read-out and setting: then `COc1ccc(OC)c(N(CC(=O)N2CCN(C)CC2)S(=O)(=O)c2ccccc2)c1` [CBK264131], with 98.8%; and `CS(=O)(=O)N(Cc1ccccc1)c1ccc(C(=O)N2CCN(Cc3ccccc3)CC2)cc1` [CBK264134], with 114%. For the molecule `O=C(O)c1ccccc1OCCCCOc1cccc2cccnc12` [CBK264136], the viability at 28.5 h, 10 µM stood at 87.2%.

For the molecule `CC(CC(=O)O)n1nnc2ccccc21` (stereo not shown) [CBK264139], the viability at 28.5 h, 10 µM was 113%. The same measure, in the same setting: the result for `CC(C)(C)C1CCc2c(sc(NC(=O)CCC(=O)O)c2C(=O)Nc2ccccc2C(F)(F)F)C1` (stereo not shown) [CBK264143] reads 100%; that for `Cc1cc2c(cc1C)N(C(=O)CSc1nc3ccccc3[nH]1)C(C)(C)CC2C` (stereo not shown) [CBK264144], 98.7%. Same read-out and setting: the result for `Nc1ncnc2[nH]c(SCc3nc4ccccc4n3Cc3ccccc3)nc12` [CBK264148] reads 103%. Same read-out and setting: then `NC(=O)CN(Cc1ccc(Cl)cc1)S(=O)(=O)c1ccccc1` [CBK264149], with 99.5%; and `N=C1/C(=C/c2cn(Cc3ccccc3)c3ccccc23)C(=O)N=C2SC(COc3ccccc3)=NN12` [CBK264150], with 114%; and `c1ccc2c(OCc3nc4c5c6c(sc5ncn4n3)CCCCC6)cccc2c1` [CBK264151], with 99.6%. For the molecule `CCOc1ccc(CN2CCN(CCCc3ccccc3)CC2)cc1` [CBK264153G], the viability at 28.5 h, 10 µM came out at 92.7%.

`COc1ccc2[nH]c(NCCCO)nc2c1` [CBK264155]: the viability at 28.5 h, 10 µM amounted to 91.2%. Consider `Cc1ccc(NC(=O)C(=O)NCCCn2ccnc2)cc1C` [CBK264157], for which the viability at 28.5 h, 10 µM was determined as 98%.

Consider `CCOC(=O)C1CCCN(CCC(=O)Nc2cccc(C)c2)C1` (stereo not shown) [CBK264158C], for which the viability at 28.5 h, 10 µM was determined as 107%.

`O=C1NC(=S)NC(=O)C1=Cc1ccc(OCc2ccccc2)c(C(=O)O)c1` [CBK264159]: the viability at 28.5 h, 10 µM (bulk resorufin, single well) came to 117%. For the molecule `O=C1NC(=O)C(=Cc2cc(Br)ccc2OCc2cccc(F)c2)C(=O)N1` [CBK264160], where the note is “bulk resorufin, single well”, the viability at 28.5 h, 10 µM came to 104%. As for `COc1cc(/C=C2\C(=O)NC(=O)N(c3cc(C)ccc3C)C2=O)ccc1O` [CBK264161], the viability at 28.5 h, 10 µM (bulk resorufin, single well) came out at 91%. On to `COc1cccc(CN2CCN(S(=O)(=O)c3ccccc3[N+](=O)[O-])CC2)c1OC` [CBK264162], for which the viability at 28.5 h, 10 µM came to 87.4%. Take `CC(=O)Nc1ccc(S(=O)(=O)N2CCN(S(=O)(=O)c3ccccc3)CC2)cc1` [CBK264163]: the viability at 28.5 h, 10 µM turned out to be 94%. For `CC(=O)Nc1ccc(S(=O)(=O)N2CCN(C(=O)COc3ccc4ccccc4c3)CC2)cc1` [CBK264164], the viability at 28.5 h, 10 µM came to 103%. With `CCCS(=O)(=O)N1CCN(Cc2cc(Br)ccc2O)CC1` [CBK264165G], the viability at 28.5 h, 10 µM came out at 102%. Consider `Cc1cc(C=O)c(C)n1-c1ccc(Oc2ccc([N+](=O)[O-])cn2)cc1` [CBK264167], for which the viability at 28.5 h, 10 µM is 99.9%.

For the molecule `O=[N+]([O-])c1ccccc1S(=O)(=O)N1CCN(Cc2cccnc2)CC1` [CBK264168G], the viability at 28.5 h, 10 µM stood at 68.3%. Consider `O=[N+]([O-])c1ccccc1S(=O)(=O)N1CCN(C2CCCCCC2)CC1` [CBK264171G], for which the viability at 28.5 h, 10 µM is 95.4%. As for `O=C(CN1CCCCC1)Nc1ccc(NC(=O)CN2CCCCC2)c(Cl)c1` [CBK264173], the viability at 28.5 h, 10 µM was 111%. For the molecule `COc1ccc(OC)c(-c2nc(Nc3ccc(Cl)cc3Cl)sc2CC(=O)O)c1` [CBK264175], the viability at 28.5 h, 10 µM was 103%. For `CCNCCNc1ccc([N+](=O)[O-])cc1` [CBK264179C], the viability at 28.5 h, 10 µM turned out to be 94.1%. Regarding `O=C1c2ccccc2C(=O)N1Cc1ccc(S(=O)(=O)NCc2ccc3c(c2)OCO3)cc1` [CBK264180], the viability at 28.5 h, 10 µM was 98.3%.

As to `CN(C)CCCNC(=S)Nc1ccc(Cl)cc1Cl` [CBK264183], the viability at 28.5 h, 10 µM turned out to be 92.5%. `CC(=O)NCCNc1ccc(C(=O)O)cc1[N+](=O)[O-]` [CBK264184]: the viability at 28.5 h, 10 µM is 87.8%. As for `CCOc1ccc(Nc2nc(-c3ccc(C)cc3C)c(CC(=O)O)s2)cc1` [CBK264187], the viability at 28.5 h, 10 µM came out at 62.5%. Consider `COc1ccc(-n2nc3cc(C)c(NC(=S)NC(=O)c4oc5ccccc5c4C)cc3n2)cc1` [CBK264188], for which the viability at 28.5 h, 10 µM is 103%.

As to `NC(=O)c1c(NC(=O)C2CC(=O)OC23CCCCC3)sc2c1CCCCC2` (stereo not shown) [CBK264189], the viability at 28.5 h, 10 µM is 102%.

Regarding `Cc1ccc(S(=O)(=O)Nc2ccccc2CNc2ccccn2)cc1` [CBK264198], the viability at 28.5 h, 10 µM is 91.9%. Same read-out and setting: the result for `COc1ccc(C)cc1NC(=O)CCN1CCN(CCO)CC1` [CBK264199] reads 97.4%; that for `Cc1ccc(OCC(=O)N2CCN(S(=O)(=O)c3ccc4ccccc4c3)CC2)cc1` [CBK264200], 115%.
